Source: patent publication US9084419B2, “Method for reducing temperature stress of plants” (SUMITOMO CHEMICAL COMPANY, LIMITED, priority 2009, dated 2015)

How the values were obtained:
[1] = test system: Rice (cultivar: NIHOMBARE); experiment: Reduction of low temperature stress in hydroponics of rice; format: in vivo; conditions: hydroponic culture medium; stress exposed group, 2 to 4° C. for 3 to 7 days
Method: Rice seeds (cultivar: NIHOMBARE) are immersed in distilled water containing 1,000 ppm of Benlate and then incubated at 30° C. for one day. The seeds are washed with distilled water, incubated in distilled water for one day and then subjected to a forced germination treatment. In the bottom of a 288-well plug tray, cotton wool is spread and then the seeds subjected to the forced germination treatment are sown. A hydroponic culture medium (8-fold diluted Kimura B hydroponic culture solution) is added thereto, followed by cultivation for 3 to 10 days under the conditions of a temperature of 28° C. (day)/23° C. (night), a humidity of 60%, an illuminance of 7,100 lx, and a day length of 12 hours. A DMSO solution having a concentration 1,000 times of each test concentration of any one of the compounds A to G is prepared and then diluted with a hydroponic culture medium. An aqueous solution (250,000 ppm) of a sodium salt of the compound A is diluted with the hydroponic culture medium to prepare a liquid having a test concentration. The above rice seedling is transferred to these hydroponic culture media containing the compound, and then cultivated for 7 to 10 days under the conditions of a temperature of 28° C. (day)/23° C. (night), a humidity of 60%, an illuminance of 7,100 lx, and a day length of 12 hours. Using a hydroponic culture medium containing 0.1% DMSO added therein as a control of any one of the compounds A to G and using a hydroponic culture medium as a control of the sodium salt of the compound A, the above rice seedlings are cultivated to form a non-treated group. The seedlings during the treatment with the present compound are cultivated for 3 to 7 days under the conditions of a temperature of 2 to 4° C., a humidity of 40 to 70%, an illuminance of 3,500 lx, and a day length of 12 hours in the stress exposed group, and under the conditions of a temperature of 25 to 30° C., a humidity of 50 to 75%, an illuminance of 4,500 lx, and a day length of 12 hours in the stress non-exposed group. After the stress test, the plant length and the weight of the above-ground part are examined. Using a pulse modulation chlorophyll fluorometer (MAXI-IMAGING-PAM, WALZ), the chlorophyll fluorescence (Fv/Fm) is measured.

roots = conditions: known from JP 4,087,942, JP 2001-139405, Plant and Soil 255: 67-75 (2003); cited from earlier work
wheat (cultivar: Apogee) [2] = experiment: Reduction of high temperature stress by wheat foliage spraying treatment (plant weight); format: in vivo; conditions: foliage spray, 0.5 mg in 50 ml; 45° C., 17 hours; 4 days after stress
Method: Wheat (cultivar: Apogee) seeds were sown in the growing soil (AISAI) in a plastic pot ([…]×58 mm in height) and then cultivated for one week under the conditions of a temperature of 20 to 25° C., a humidity of 50 to 75%, an illuminance of 5,300 lx, and a day length of 16 hours.
A flowable formulation of the compound A was obtained by adding about 120 mg of a mixture of white carbon and a polyoxyethylene alkyl ether sulfate ammonium salt (weight ratio of 1:1) and 300 μl of water to 0.5 mg of the compound A, followed by fine grinding using a wet grinding method. The obtained flowable formulation was diluted with 50 ml of water to obtain a spray liquid. After adding 0.2% RINO as a sticker to the spray liquid, a sufficient amount (45 ml per 6 pots) was sprayed using an automatic spraying machine. As a control, a flowable formulation not containing the compound A was prepared and then sprayed to the non-treated group. Under the conditions of a temperature of 20 to 25° C., a humidity of 50 to 75%, an illuminance of 5,300 lx, and a day length of 16 hours, cultivation was carried out for 2 days.
The above test plants having been subjected to the spraying treatment were put in an artificial climate chamber set to the following conditions, and a stress test was carried out.
Temperature: 45° C., 17 hours, Illuminance: 6,500 to 7,900 lx, and Humidity: 50%. […]

[3] = test system: Tomato (cultivar: Micro-Tom); experiment: Reduction of high temperature stress by tomato soil irrigation treatment (fruit setting rate); format: in vivo; conditions: soil irrigation twice, 50 ml per seedling; 40° C. (day)/30° C. (night) for 7 days; 13 days after stress
Method: Tomato seeds (cultivar: Micro-Tom) were sown in the growing soil (AISAI) in a plastic pot and then cultivated in a greenhouse (set at a temperature of 25° C.) for about 4 weeks. A soil irrigation treatment was carried out twice, using an aqueous solution of a sodium salt of the compound A in an amount of 50 ml per seedling, on the 15th day and the 22nd day after seeding. As a control, a soil irrigation treatment was carried out using distilled water in an amount of 50 ml per seedling to form a non-treated group. After the irrigation treatment, plants cultivated up to the period when a 1st flower cluster blooms (1 to 2 flowers bloom(s), on the 32nd day after seeding) were cultivated for 7 days under the conditions of a temperature of 40° C. (day)/30° C. (night), a humidity of 63% (day)/70% (night), an illuminance of 7,100 lx, and a day length of 16 hours in the stress exposed group, while plants were cultivated for 7 days in a greenhouse (set at a temperature of 25° C.) in the stress non-exposed group. After the stress test, the test plants were cultivated for 13 days in a greenhouse (set at a temperature of 25° C.), the number of flower setting and the number of fruit setting were counted to determine a fruit setting rate (%) (number of fruit setting/number of flower setting×100).

wheat (cultivar: Apogee) [4] = experiment: Reduction of high temperature stress by wheat seed treatment (plant weight), Test Example 10; format: in vivo; conditions: seed coating 5 mg per 1 g of seeds; 36° C. (day)/32° C. (night) for 19 days; 36th day after seeding
Method: A Blank slurry solution containing 5% (V/V) color coat red (Becker Underwood, Inc.), 5% (V/V) CF-Clear (Becker Underwood, Inc.) and 0.4% Maxim XL (Syngenta) was prepared. The compound C (methyl 4-oxo-4-(2-phenylethyl)aminobutyrate) or the compound E (5-oxo-5-[2-(3-indolyl)ethyl]aminovaleric acid) was dissolved in the Blank slurry to obtain a slurry solution so as to control the amount of the compound to be 5 mg per 1 g of seeds. Using a 50-ml conical tube, seed coating was carried out by mixing 1.3 ml of the slurry solution with 50 g of wheat seeds (cultivar: Apogee) and the seeds were dried. As a control, seed coating was carried out using the Blank slurry solution in place of the slurry solution to obtain seeds for non-treated group. The coated seeds (5 seeds each) were sown in the growing soil (AISAI) in a plastic pot and then cultivated in a greenhouse (set at a temperature of 18° C. (day)/15° C. (night)) for 17 days. Before the stress test, thinning was carried out to control the number of seedlings to 3 per pot.
The above test plants on the 17th day after seeding were cultivated for 19 days in an artificial climate chamber under the conditions of a temperature of 36° C. (day)/32° C. (night), a humidity of 50% (day)/60% (night), an illuminance of 7,000 lx, and a day length of 12 hours. […]

wheat (cultivar: Apogee) [5] = experiment: Reduction of high temperature stress by wheat seed treatment (plant weight), Test Example 2; format: in vivo; conditions: 40° C. (day)/30° C. (night) for 14 days; for Fresh weight of the above-ground part: 32nd day after seeding
Method: A Blank slurry solution containing 5% (V/V) color coat red (Becker Underwood, Inc.), 5% (V/V) CF-Clear (Becker Underwood, Inc.) and 0.4% Maxim XL (Syngenta) was prepared. A sodium salt of the compound A was dissolved in the Blank slurry to obtain a slurry solution so as to control the amount of the sodium salt within a range from 0.5 mg to 2 mg per 1 g of seeds. Using a seed treating machine (HEGE11, manufactured by Hans-Ulrich Hege), seed coating was carried out by mixing 1.3 ml of the slurry solution with 50 g of wheat seeds (cultivar: Apogee) and the seeds were dried. As a control, seed coating was carried out using the Blank slurry solution in place of the slurry solution to obtain seeds for non-treated group. The coated seeds (5 seeds each) were sown in the growing soil (AISAI) in a plastic pot and then cultivated for 18 days under the conditions of a temperature of 20 to 25° C., a humidity of 50 to 75%, an illuminance of 5,300 lx, and a day length of 16 hours. Before the stress test, thinning was carried out to control the number of seedlings to 3 per pot. The above test plants on the 18th day after seeding were cultivated for 14 days under the conditions of a temperature of 40° C. (day)/30° C. (night), a humidity of 63% (day)/70% (night), an illuminance of 7,100 lx, and a day length of 16 hours. After the stress test, on the 32nd day after seeding, fresh weight of the above-ground part of test plants was examined for 4 to 7 pots.

COC(=O)CCC(=O)NCCCCc1ccccc1 [compound B, methyl 4-oxo-4-(4-phenylbutyl)aminobutyrate]
chlorophyll fluorescence (Fv/Fm) vs non-treated group [1]: increase | plant length vs non-treated group [1]: increase | weight of the above-ground part vs non-treated group [1]: increase

O=C(O)CCC(=O)NCCc1ccccc1 [compound A, 4-oxo-4-(2-phenylethyl)aminobutyric acid]
activity to promote growth of roots (roots): have activity to promote growth of roots | fresh weight of the above-ground part vs non-treated group (wheat (cultivar: Apogee) [2]): increased | visual evaluation of high temperature stress-induced withering and dying vs non-treated group (wheat (cultivar: Apogee) [2]): alleviation of high temperature stress-induced withering and dying was observed | fruit setting rate vs non-treated group [3]: a decrease in fruit setting rate was remarkably alleviated

COC(=O)CCC(=O)NCCc1ccccc1 [compound C, methyl 4-oxo-4-(2-phenylethyl)aminobutyrate]
fresh weight of the above-ground part vs non-treated group (wheat (cultivar: Apogee) [4]): increased

O=C([O-])CCC(=O)NCCc1ccccc1.[Na+] [Compound A, Na salt]
Percentage relative to non-treated group (fresh weight of the above-ground part) (wheat (cultivar: Apogee) [5]; seed coating 0.5 mg/g of seeds): 150% | Fresh weight of the above-ground part (wheat (cultivar: Apogee) [5]; seed coating 0.5 mg/g of seeds): 0.87 g/3 seedlings | Percentage relative to non-treated group (fresh weight of the above-ground part) (wheat (cultivar: Apogee) [5]; seed coating 1.0 mg/g of seeds): 140% | Fresh weight of the above-ground part (wheat (cultivar: Apogee) [5]; seed coating 1.0 mg/g of seeds): 0.77 g/3 seedlings | Percentage relative to non-treated group (fresh weight of the above-ground part) (wheat (cultivar: Apogee) [5]; seed coating 2.0 mg/g of seeds): 140% | Fresh weight of the above-ground part (wheat (cultivar: Apogee) [5]; seed coating 2.0 mg/g of seeds): 0.81 g/3 seedlings | chlorophyll fluorescence (Fv/Fm) vs non-treated group [1]: increase | plant length vs non-treated group [1]: increase | weight of the above-ground part vs non-treated group [1]: increase

O=C(O)CCCC(=O)NCCc1c[nH]c2ccccc12 [compound E, 5-oxo-5-[2-(3-indolyl)ethyl]aminovaleric acid]
fresh weight of the above-ground part vs non-treated group (wheat (cultivar: Apogee) [4]): increased
